Key:
[1] = Critical micellar concentration by rhodamine 6G method; type: physicochemical; settings: for CMC expressed on a molar basis: for the mixture: total surfactant; for CMC (as percent w/v): rhodamine 6G method
Method: The CMC is not a single value, but a range of concentrations. Because the range is relatively narrow, a single concentration within this transition zone is defined as the CMC. The CMC for each individual molecule and for each mixture can be determined experimentally in variety of ways; that illustrated below is the rhodamine 6G method of Carey, M.C., et al J Colloid Interface Sci (1969) 31:382-396. In this method, a low concentration of rhodamine 6G is added as a probe in a series of dispersions or solutions of the material to be tested. Where the solute concentration is below the CMC the probe molecule has a lambdamax at 523 nm; above the CMC, the probe binds to the micelle, which causes the lambdamax to increase to approximately 532 nm. By plotting the wavelength of the maximum absorption of the rhodamine 6G probe as a function of concentration of test materials, two lines of differing slopes are obtained which intersect at the CMC. The value of the intersection is then taken as the value of the CMC for the particular dispersion.
When this procedure is conducted for solutions of STDHF, Solulan C-24, or a 1:1 mixture of these materials, the CMC values (as percent w/v) obtained are 0.14% for STDHF; 0.028% for Solulan C-24; and 0.012% for the mixture of the two--i.e., 0.006% STDHF plus 0.006% Solulan C-24. Thus, for the mixture of STDHF and Solulan C-24, the CMC for the mixture is lower than that for either component alone. These values establish minimum concentration levels needed for the invention composition, and also establish that the two components form mixed micelles. If there were two separate populations of micelles, the CMC as measured by the above-described method would be equal to that of Solulan C-24. The existence of mixed micelles can be verified with other data as described below.

[2] = Quasi-elastic light-scattering of micelles; type: physicochemical
From the text: Solulan C-24 forms micelles with a radius of 75 angstroms; STDHF forms micelles with a radius of 17 angstroms, and the mixture (1:1 w/w) forms micelles with a radius of 40 angstroms.

[3] = Transport of insulin across rat nasal tissue (plasma insulin, delivery via the nares); type: in vivo; settings: 5IU/kg insulin intranasal, FIG. 5
Method: Efficacy in transport of insulin and of human growth hormone across rat nasal tissue was evaluated. Male Sprague-Dawley rats (Simonsen, Gilroy, CA, 240-300 gm) were anesthetized by subcutaneous injection of Acepromazine (3 mg/kg) followed 10 minutes later by intraperitoneal injections of inactin (100 mg/kg) for experiments shown in FIGS. 4-6 or by intraperitoneal (IP) injection of sodium pentobarbital (65 mg/kg), with additional doses given intravenously as necessary for experiments shown in FIGS. 7-8. A trachea tube was inserted to assist breathing.
In FIGS. 4-6, insulin or hGH was delivered directly via the nares; no esophageal cannula was inserted; the test solution (50 ul) was delivered 1 cm into the nasal cavity using PE 10 tubing attached to a Hamilton syringe.
In all cases, blood samples (0.5 ml) were drawn from a catheter in the right jugular vein and diluted with heparinized saline. Plasma (300-400 ul) was separated and stored at 4° C. for less than 48 hours prior to analysis of growth hormone using an immunoradiometric assay (Tandem R, Hybritech, Inc, San Diego, Calif.) or of insulin using a radioimmunoassay (Micromedic, ICN Micromedic Systems, Horsham, Pa.). […] Estimations of area under the curve (AUC) of plots of plasma insulin or hGH concentration versus time were calculated using the trapezoidal rule.

[4] = test system: red blood cells; assay: Red blood cell (RBC) lysis as a measure of toxicity; type: cell-based; settings: FIG. 3
Method: Consistent results were obtained when red blood cell (RBC) lysis was evaluated as a measure of toxicity and SGDHF was used as the fusidate component. […] Thus, the addition of the detergent appears to protect against the lytic effect of the fusidate.

Molecule	CMC expressed on a molar basis [1]	CMC (as percent w/v) [1]	micelle radius [2]	time course of plasma insulin level [3]	RBC lysis ([4]; concentration range of 0-0.3%)	RBC lysis ([4]; 0.3% concentration)
CC(=O)O[C@H]1C[C@@]2(C)[C@@H](C[C@@H](O)[C@H]3[C@@]4(C)CC[C@@H](O)[C@@H](C)[C@@H]4CC[C@@]32C)/C1=C(\CCCC(C)C)C(=O)NCCS(=O)(=O)[O-].[Na+] [STDHF, sodium tauro-24,25-dihydrofusidate]	2.0 mM	0.14%	17 angstroms	lower levels	–	–
polyoxyethylene-24-cholesterol ether [Solulan C-24]	0.19 mM	0.028%	75 angstroms	lower levels	low values of RBC lysis	–
sodium glyco-24,25-dihydrofusidate [SGDHF]	–	–	–	–	–	100%
